We go through one compound from patent US20260232644A1, “Compositions Comprising an Inhibitor of Galectin-3” (University of Liverpool, priority 2023, published 2026).

A word on the Kd: it is the constant that tells how readily two partners part at equilibrium. By IC50 is commonly meant the concentration needed to halve the response being measured. A lower IC50 goes with greater potency in that assay.

For one assay, the target named is T1, full-length galectin-3 (Homo sapiens, UniProt P17931).
T1 construct: made in house; host or cells: E. coli
Briefly: Tryptophan Fluorescence Spectroscopy (TFS) binding affinity, full-length Galectin-3. The protocol: The binding affinity of the inhibitors to galectin-3 was determined by Intrinsic Tryptophan Fluorescence Spectroscopy (TFS) exactly as we described recently [Sindrewicz, P., et al., Intrinsic tryptophan fluorescence spectroscopy reliably determines galectin-ligand interactions. Sci Rep, 2019. 9(1): p. 11851]. The Galectin-3 concentration used was 10 μM and the inhibitor titration concentrations were from 0 to 224 μM. DMSO/control buffer (PBS with 2 mM EDTA) titrations were performed and used for background subtraction.

The subject of assay [1] is human melanoma ACA19 cells. Briefly: ACA19 cell invasion through HUVECs (transwell). Format: cell-based. The settings on record: compound 20 μM, transwells. The method, then: (§1) HUVECs were plated at a density of 1.5×10^4 cells in 8 μm pore transwells in 24-well plate and cultured for three days to allow formation of tight monolayer. The integrity of HUVEC monolayer was confirmed by measuring TEER and only monolayers with TEER reading>800 Ω/cm^2 were used for the invasion assay. AGA19+ or SW620 cell suspension (5×10^5 cells/ml in DMEM) was introduced with 5 μl/ml fluorescent cell labelling solution DiL for 30 min at 37° C. The fluorescence labelled cells were washed twice with PBS and resuspended into 1×10^5 cells/ml in DMEM. The cancer cell suspension was then incubated with or without galectin-3 (2 μg/ml) or various concentrations of the compound inhibitors or lactose at 37° C. for 20 min before introduction to the HUVEC monolayers for 24 hr at 37° C. The cells at the upper side of the trans-well inserts were gently removed with cotton swabs. The cells migrated to the bottom side of the transwells were fixed with 2% paraformaldehyde for 10 min. The trans-well membrane was removed and placed on glass slides. After addition of fluorescence mounting medium containing DAPI, the fluorescence labelled cells on the membrane were quantified under a fluorescence microscope.

The subject of assay [2] is human colon cancer SW620 cells. Briefly: SW620 cell invasion through HUVECs (transwell). Format: cell-based. As to conditions: compound 20 μM, transwells. The method, then: as §1, with “The cancer cell suspension was then incubated with or without galectin-3 (2 μg/ml) or various concentrations of the compound inhibitors or lactose at 37° C. for 20 min before introduction to the HUVEC monolayers for 24 hr at 37° C.” left out

A further assay deals with T2, Galectin-2 (Homo sapiens, UniProt P05162).
T2 construct: made in house; host or cells: E. coli
T2 sequence (P05162 1-132): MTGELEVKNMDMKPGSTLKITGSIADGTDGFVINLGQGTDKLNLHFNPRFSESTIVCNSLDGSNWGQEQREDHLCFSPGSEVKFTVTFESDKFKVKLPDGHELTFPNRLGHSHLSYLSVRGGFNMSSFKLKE
Briefly: Galectin-2 binding to asialofetuin ELISA. As to conditions: Gal-2 5 μg/ml, ASF 20 μg/ml. The method, then:
Effect of the inhibitors on galectin binding to its ligand asialo fetuin (ASF) was measured by galectin ELISA. Nanty-six well plates were coated overnight with 20 μg/ml ASF in coating buffer (15 mM Na2CO3 17 mM NaHCO3 pH 9.6.). The wells were washed twice with PBS and incubated with blocking buffer (1% BSA in PBS) for 1 hr. The supernatants were removed and replaced with 5 μg/ml recombinant human galectin without or with different concentrations of the compound inhibitors or lactose in blocking buffer for 1 hr at room temperature. The wells were washed and incubated with 1 μg/ml anti-galectin antibody for 2 hr. Following addition of HRP-conjugated secondary antibody for 1 hr, FAST OPD development solution was added for 15-20 minutes. The reaction was terminated by addition of 4M sulphuric acid. The plates were read at 492 nm (reference wavelength 595 nm) by a microplate reader.

Assay [3] relates to human lung cancer H1975 cells. Briefly: Lung cancer cell adhesion to basement matrix. Format: cell-based. The protocol: (§2) Nanty-six well plates were coated with 50 μl Matrigel (1:30 diluted in PBS) at 37° C. for 1 hour.
(§3) Cancer cells, pre-labelled with fluorescent die DiI at 37° C. for 20 minutes, were washed twice with PBS and resuspended into 3×10^4 cells/ml in serum-free medium. The matrix-coated 96-well plates were washed twice with PBS before introduction of 100μ cell suspension with different concentrations of the inhibitors or PBS/DMSO (control) for 1 hour at 37° C. The plates were washed twice with PBS before three randomly selected Field of Views (FOVs) were recorded by fluorescence microscope and number of adhesion cells were quantified by Image J.

Assay [4] concerns human pancreatic cancer PANC1 cells. The assay can be described thus: Pancreatic cancer cell adhesion to basement matrix. It is filed as cell-based. The protocol:
as §2, §3
MDAMB-231 or PANC-1 cells were seeded into 6-well plate (2×10^5 cells) and cultured at 37° C. for 24 hour. Galectin-3 CRISPR Cas9 Knockout plasmid (2 μg) and galectin-3 HDR plasmid (2 μg) was mixed with Plasmid Transfection Medium (21 μl) for 5 minutes before addition to a mixture of lipofectamine STEM Transfection Reagent (STEM00001) (1 μl) and Plasmid Transfection Medium (25 μl) for 10 minutes at room temperature. The cells in the 6-well plates were washed and introduced with the Plasmid DNA/Lipofectamine STEM Transfection Reagent complex at 37° C. for 24 hour. The culture medium was replaced with fresh antibiotics-free medium for further 24 hour before introduction of 10 μg/mL puromycin-containing medium every three days. Successful co-transfection of the CRISPR/Cas9 KO Plasmid and HDR Plasmid was confirmed by expression of red fluorescence protein of the cells. Galectin-3 knockout in the cells was further confirmed by immunoblotting.

Where a name gives a salt, the structure may show the parent alone.

T1 sequence (P17931 whole entry): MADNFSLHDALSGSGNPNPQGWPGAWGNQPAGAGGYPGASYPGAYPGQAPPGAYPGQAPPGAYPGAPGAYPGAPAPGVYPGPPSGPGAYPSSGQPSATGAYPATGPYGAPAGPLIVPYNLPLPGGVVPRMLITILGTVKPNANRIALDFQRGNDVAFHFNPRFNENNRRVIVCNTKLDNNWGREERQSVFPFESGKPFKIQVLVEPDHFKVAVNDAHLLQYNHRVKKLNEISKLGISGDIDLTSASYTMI

The compound `NC1CCN(c2nc3c(cc2F)c(=O)c(C(=O)O)cn3-c2ccc(F)cc2F)C1` (stereo not drawn) [Formula X, Tosufloxacin tosylate] registered a Kd at full-length galectin-3 of 5 to 7 µM. Also, the “Inhibition of Galectin-3-mediated invasion of ACA19 cells through HUVECs” value in assay [1] was “significant inhibition”. For the same compound, in assay [2], the “Inhibition of galectin-3-mediated invasion of SW620 cells through HUVECs” value is “significant inhibition”. In addition, the “Effect on Galectin-2 binding to asialofetuin” value on Galectin-2 was “does not affect binding”. Also, the IC50 in assay [3] (Homo sapiens, NCI-H1975) is roughly 5 µM. The “Inhibition of H1975 cell adhesion to matrix” value in assay [3] (different concentrations) is on record as “dose-dependent inhibition”. Also, the “Effect on adhesion of galectin-3 knockout (Gal3KO) PANC1 cells” value in assay [4] (CRISPR/Cas9 Gal3KO cells) is reported as “lost their inhibitory effect”. Also, the “Effect on adhesion of non-transfected (con) PANC1 cells” value in assay [4] (control cells) was “significant reduction”. In assay [4] (different concentrations), the “Inhibition of PANC1 cell adhesion to matrix” value is reported as “dose-dependent inhibition”.
